Measurements: paper PMC7822816, “Halo-fluorescein for photodynamic bacteria inactivation in extremely acidic conditions” (Nature Communications, 2021)
“And” between values parts separate entries of the source, which are not always exact repeats. Equal entries are not always repeated.

Assays:
A. acidoterrestris = experiment: IC50 of photodynamic inactivation, A. acidoterrestris; format: cell-based; settings: Alicyclobacillus acidoterrestris, 10 min; pH 2.5; LED 520 nm, 35 mW/cm^2, 10 min
[1] = pH titration of halogenated fluorescein (pH0.5); format: physicochemical
Protocol: The pH0.5 values (the pH value when the open form reduce to the half of the maximum) of various fluorescein derivatives were determined experimentally through pH titration (Supplementary Figs. 6–16).
The pH of the solutions were adjusted through varying the ratios of citric acid and Na2HPO4 (pH 2.2–8.0), and further acidity was adjusted with concentrated HCl or 1 M NaOH. The absorption and fluorescence spectra of the resultant solutions were then collected.
Section S5. pH-dependent Properties of the Halogenated Fluoresceins.
S5.1 pH titration of halogenated fluorescein
Fluorescein derivatives (Supplementary Table 1) were dissolved in DMSO to obtain 1 mM stock solutions and then diluted with citric acid-Na2HPO4 buffer (100 mM) to 10
μM. The pH of the solutions were adjusted through varying the ratios of citric acid and Na2HPO4 (pH 2.2-8.0), and further acidity was adjusted with concentrated HCl or 1 M
NaOH. The absorption and fluorescence spectra of the resultant solutions were then

[2] = Photophysical characterization (absorption, fluorescence, phosphorescence, lifetime); format: physicochemical
Protocol: Section S6. Photophysical Characterizations
S6.1 Absorption, fluorescence, and phosphorescence spectra
Fluorescein and its derivatives were dissolved in DMSO to obtain 1 mM stock solutions.
The stock solutions were diluted with deionized water to 10 μM.
Supplementary Figure 20. The absorption (black), fluorescence (blue), and phosphorescence (red, slit 25 nm) spectra of FL.
Supplementary Figure 21. The absorption (black), fluorescence (blue), and phosphorescence (red, slit 25 nm) spectra of DCF.
S6.2 Fluorescence lifetime
Fluorescence decay samples was recorded with Fluorolog-3 (Horiba). The solution of samples were prepared to be 5 μM in 0.5% (v/v) DMSO, and diluted with 0.1M NaOH.
S6.5 Photophysical properties of the halogenated-fluorescein derivatives
Supplementary Table 4. Photophysical Properties of Halogenated-fluorescein derivatives. […]
a Measured in 2% DMSO; b Measured in 2% DMSO citric acid -disodium hydrogen phosphate buffer; c Measured in a mixed solvent of D 2O and CH3CN (VD2O:
VCH3CN = 1: 15); d The solution of samples were prepared to be 5 μM in 0.5% (v/v) DMSO, and diluted with 0.1 M NaOH.

[3] = Relative singlet oxygen quantum yield (1O2 phosphorescence, Rose Bengal standard); format: physicochemical; parameters: key: relative to Rose Bengal standard (ΦΔ = 0.75); settings: pH = 10 media; relative, RB as the standard
Protocol: To permit the open-form structure of all fluorescein derivatives, all the measurements were carried out in pH = 10 media.
The singlet oxygen quantum yields (ΦΔ) of all fluorescein-based PSs were evaluated with Rose Bengal as the standard (ΦΔ = 0.75):1 ΦΔ=AsAbsorption/As(Emission)×ARB(Emission)/ARB(Absorption)×0.75 Here, the area of absorption (RB and PSs) was collected with an integrating sphere (λex = 510 nm), while the area of emission was obtained from the characterized 1270 nm ^1O2 phosphorescence emission. For collection of such emission, CH3CN and D2O mixed solvent (v (D2O): v (CH3CN) = 1:15, pH = 9.0, adjusted with 0.001 M NaOH) was used, since H2O can severely quench the singlet oxygen luminescence. For all the measurements, the concentrations of the PSs were set at 10 μM.
S6.3 Relative singlet oxygen quantum yield
The singlet O2 quantum yield of photosensitizers were measured by Fluolog-3 spectrofluorometer with an integration sphere (IS80, Labsphere) and NIR detector (Hamamatsu H-10330) in this work.
For better collection of the characterized singlet oxygen phosphorescence emission (1275 nm), CH3CN and D2O mixed solvent was used (H2O can severely quench the singlet oxygen luminescence). The 10 mM stock solutions in CH3CN and D2O mixed solvent (VCH3CN:VD2O = 15:1) were first prepared. The stock solutions were diluted to 10 μM, and the final volume was 2 mL. In addition, the CH3CN and D2O mixed solvent as blank was also prepared.
1. Turn on the instrument and the start software, the light source is xenon lamp.
2. From the experiment menu, selected spectra, emission. The 1O2 emission phosphorescence spectra are first measured.
3. The parameters setting are listed: a. Excitation wavelength: 510 nm

L. plantarum [4] = experiment: IC50 of photodynamic inactivation, L. plantarum; settings: Lactiplantibacillus plantarum, 10 min, pH 2.5, read-out: IC50 (L. plantarum)
Protocol: For quantitative comparison, the half-maximal inhibitory concentrations (IC50) of TIF for these bacterial were measured (Supplementary Table 6, and Supplementary Figs. 51–58).
S. aureus and MRSA, and C. albicans were provided by West China Hospital of Stomatology, Sichuan University. A. acidoterrestris, S. enterica, H. pylori, L. plantarum, and E. coli were provided by College of Life Science, Sichuan University. The bacteria were cultured overnight in a constant temperature oscillator (37 °C, 170 r/min, the specific culture conditions were listed in Supplementary Table 6). Suspensions of bacteria (100 μL, diluted 1000-folds, PBS) were added with different concentration PSs (final volume of 1 mL), and irradiated with LED (λ = 520 nm, 35 mW/cm^2) for 10 min. Then, the treated bacteria liquid (100 μL) were added into the culture medium and cultured in a 24-well plate. The OD600 of bacteria was measured to obtain the bacteria CFUs, and the survival rate were calculated as C/C0 × 100%, where C is the CFU of sample which treated with PSs and light, and C0 is the blank without any treatment. All photodynamic sterilizations were carried out in at least three replicates.

L. plantarum [5] = experiment: Photodynamic inhibition of L. plantarum (coating plate method); format: cell-based, Lactobacillus plantarum
Salmonella = experiment: IC50 of photodynamic inactivation, Salmonella; settings: 10 min, pH 2.5, read-out: IC50 (Salmonella)
Protocol: The bacteria were cultured overnight in a constant temperature oscillator (37 °C, 170 r/min, the specific culture conditions were listed in Supplementary Table 6). Suspensions of bacteria (100 μL, diluted 1000-folds, PBS) were added with different concentration PSs (final volume of 1 mL), and irradiated with LED (λ = 520 nm, 35 mW/cm^2) for 10 min. Then, the treated bacteria liquid (100 μL) were added into the culture medium and cultured in a 24-well plate. The OD600 of bacteria was measured to obtain the bacteria CFUs, and the survival rate were calculated as C/C0 × 100%, where C is the CFU of sample which treated with PSs and light, and C0 is the blank without any treatment. All photodynamic sterilizations were carried out in at least three replicates.
Growth inhibition of E. coli by different concentrations of TIF.
Irradiation: 520 nm green LED (6 mW/cm2), 10 min. Error bars = Standard Deviation (n=6).
Growth inhibition of Salmonella by different concentrations of
TIF. Irradiation: 520 nm green LED (6 mW/cm2), 10 min.

[6] = test system: bacteria in passionfruit lemon juice; experiment: Photodynamic sterilization of acidic juices
Protocol: The prepared juice samples were divided into two groups: one for light treatment of 10–20 min (xenon lamp with 420 nm long-pass filter, 100 mW/cm^2), and another without (stored at 4 °C). […] For other juices (pH 3.6–4.6), similar bacteria inhibition results were obtained (Supplementary Figs. 63–66). Besides, the greatly extended shelf life was also applicable to strawberry juice (Supplementary Fig. 67) and tomato juice (Supplementary Fig. 68). […] It should be noted that the TIF-based method was efficient in treatment of acid- and heat-resistant A. acidoterrestris (Fig. 6), the main cause of fruit juice spoilage and deterioration (even after pasteurization[41]).
Fresh juices were prepared and divided into two groups (each to a culture dish of 60 mm id), and then TIF was added with final concentration of 10 μM. One group was subjected to light processing (xenon lamp, 300 W, 420 nm optical filter, beam spot size 60 mm) for 10–20 min, and another without. All samples were sub-packed into the headspace bottle and stored in 4 °C for different time. To determine the bacteria colonies, 1 mL juice samples were mixed with plate count agar and culture at 37 °C for 48 h (GB 4789.2-2016). Afterward, the total number of bacteria colonies were counted.

In the case of O=C(O)c1ccccc1-c1c2cc(I)c(=O)c(I)c-2oc2c(I)c(O)c(I)cc12 [TIF, 2′,4′,5′,7′-tetraiodofluorescein], the IC50 (A. acidoterrestris) is reported as 580 nM, the pH0.5 ([1]; 2% DMSO citric acid-disodium hydrogen phosphate buffer (Supplementary Table 4)) is reported as 4.07 and the “lowering of pH0.5 compared with fluorescein” value ([1]; difference to fluorescein (6.09)) is reported as 2.02 units. For the same compound, the kdec [2] was 1e+11 s⁻¹, the knr [2] was 9.97e+10 s⁻¹ and the krad [2] was 3e+08 s⁻¹. For the same compound, the maximum absorption [2] was 526 nm, the ΦFL ([2]; 5 μM in 0.5% (v/v) DMSO, diluted with 0.1 M NaOH) was 0.003 and the λAbs ([2]; 2% DMSO) was 527 nm. For the same compound, the λPh ([2]; 2% DMSO) was 701 nm, the λem ([2]; 2% DMSO) was 551 nm and the τfl ([2]; fluorescence lifetime, 5 μM in 0.5% DMSO, 0.1 M NaOH) was 0.01 ns. The “singlet oxygen quantum yield (ΦΔ)” value [3] was 0.64, the IC50 (L. plantarum [4]) was 10 nM and the “antimicrobial activity at different pH” value (L. plantarum [5]; 0.5 μM, light, pH range 2.5–7.0) was “considerable antimicrobial activity”. For the same compound, the “dark toxicity (bacteria growth)” value (L. plantarum [5]; no light, concentration up to 50 μM) was “no significant inhibition of bacteria growth”, the “live/dead bacterial staining (SYTO 9/propidium iodide)” value (L. plantarum [5]; pH 2.5, 10 μM, irradiation 1 h) was “bright red fluorescence” and the “membrane integrity (SEM, TEM)” value (L. plantarum [5]; pH 2.5, 10 μM, irradiation 1 h) was “obvious deformation and distortion parts”. For the same compound, the IC50 (Salmonella) was 630 nM, the “shelf life of juice after photo-treatment” value ([6]; passionfruit lemon juice pH 2.8, 10 μM, xenon lamp 420 nm long-pass 100 mW/cm^2, 10 min, stored at 4 °C) was ~ 15 days and 15 days and the “sterilization performance compared with standard methods” value ([6]; passionfruit lemon juice, versus pasteurization and O3 treatment) was “comparable sterilization performance as pasteurization”.
